One assay concerns influenza B. The assay is described as follows: Antiviral activity of the combinations against influenza B. The assay is classed as cell-based. To be noted: combination with Compound 1.
In assay [1] the test system is Influenza virus A/PR/8/34 (H1N1). The assay is described as follows: Cytopathic effect (CPE) assay of two-drug combinations in MDCK cells, MacSynergy II analysis. Format: cell-based. A general note: Protection from cytopathic effect is a common read-out in antiviral testing.
Setting [2] is: combination with Compound 1, A/PR/8/34 (H1N1) in MDCK cells, 0.125-8x EC50 checkerboard, MacSynergy II.

Where two headings read alike, the source gives them in different places.

On to `CCC(CC)O[C@@H]1C=C(C(=O)O)C[C@H](N)[C@H]1NC(C)=O` [Oseltamivir acid, oseltamivir acid], for which, in the assay with influenza B, the “Antiviral activity against influenza B” value is “exhibit antiviral activity”. In addition, in assay [1] (setting [2]), the “Antagonism volume (95%)” value was −9.19 and the “Synergy volume (95%)” value is recorded as 269.37. In assay [1] (combination with Compound 1, A/PR/8/34 (H1N1) in MDCK cells, MacSynergy II), the Combination effect result is reported as “Strong synergism”. In addition, the “Synergistic effect in influenza antiviral CPE assays” value in assay [1] (combination with Compound 1, IFV A/PR/8/34 (H1N1)) is on record as “strong synergistic effect”.

As to `NC(=O)c1nc(F)c[nH]c1=O` [Favipiravir, favipiravir], in the assay with influenza B, the “Antiviral activity against influenza B” value was “exhibit antiviral activity”. Besides, in assay [1], the Combination effect entry is “Strong synergism”, the “Synergistic effect in influenza antiviral CPE assays” value is given as “strong synergistic effect” and the “Synergy volume (95%)” value was 413.85. In assay [1] (setting [2]), the “Antagonism volume (95%)” value is recorded as −3.15.

For the molecule `O=C1c2c(O)c(=O)ccn2N([C@@H]2c3ccccc3SCc3c2ccc(F)c3F)[C@@H]2COCCN12` [Baloxavir, baloxavir], the “Synergy volume (95%)” value in assay [1] came to 285.84. Moreover, in assay [1] (setting [2]), the “Antagonism volume (95%)” value is −12.28.

Values taken from US12233066B2, “Combinations of inhibitors of influenza virus replication” (COCRYSTAL PHARMA, INC., priority 2018, dated 2025).
